# Source: the NIST ThermoML archive (doi:10.1021/je049777o)
# Numbers after ± are expanded uncertainties.
# Assay: xn = mol fraction of the nth substance listed
# Settings: 101.3 kPa, Liquid
smiles,measurement,setting,value
COC(=O)OC [dimethyl carbonate] + CCCCCCC,mass density,"293.15 K, x1 = 0.1099",709.87 ± 0.66 kg/m3
same,viscosity,"293.15 K, x1 = 0.1099",0.3932 ± 0.0082 mPa·s
same,mass density,"293.15 K, x1 = 0.2176",735.33 ± 0.62 kg/m3
same,viscosity,"293.15 K, x1 = 0.2176",0.3924 ± 0.0082 mPa·s
same,mass density,"293.15 K, x1 = 0.3229",763.59 ± 0.57 kg/m3
same,viscosity,"293.15 K, x1 = 0.3229",0.4001 ± 0.0082 mPa·s
same,mass density,"293.15 K, x1 = 0.4259",794.8 ± 0.51 kg/m3
same,viscosity,"293.15 K, x1 = 0.4259",0.4139 ± 0.0082 mPa·s
same,mass density,"293.15 K, x1 = 0.5266",829.38 ± 0.46 kg/m3
same,viscosity,"293.15 K, x1 = 0.5266",0.4321 ± 0.0083 mPa·s
same,mass density,"293.15 K, x1 = 0.6252",867.51 ± 0.39 kg/m3
same,viscosity,"293.15 K, x1 = 0.6252",0.4541 ± 0.0085 mPa·s
same,mass density,"293.15 K, x1 = 0.7218",910.1 ± 0.32 kg/m3
same,viscosity,"293.15 K, x1 = 0.7218",0.4774 ± 0.0086 mPa·s
same,mass density,"293.15 K, x1 = 0.8165",957.71 ± 0.26 kg/m3
same,viscosity,"293.15 K, x1 = 0.8165",0.5078 ± 0.0088 mPa·s
same,mass density,"293.15 K, x1 = 0.9092",1011.41 ± 0.23 kg/m3
same,viscosity,"293.15 K, x1 = 0.9092",0.5511 ± 0.0091 mPa·s
same,mass density,"293.15 K, x1 = 1",1069.54 ± 0.24 kg/m3
same,viscosity,"293.15 K, x1 = 1",0.6173 ± 0.0096 mPa·s
same,mass density,"298.15 K, x1 = 0.1099",705.39 ± 0.67 kg/m3
same,viscosity,"298.15 K, x1 = 0.1099",0.3737 ± 0.0081 mPa·s
same,mass density,"298.15 K, x1 = 0.2176",730.61 ± 0.62 kg/m3
same,viscosity,"298.15 K, x1 = 0.2176",0.3723 ± 0.008 mPa·s
same,mass density,"298.15 K, x1 = 0.3229",758.68 ± 0.57 kg/m3
same,viscosity,"298.15 K, x1 = 0.3229",0.3796 ± 0.008 mPa·s
same,mass density,"298.15 K, x1 = 0.4259",789.63 ± 0.52 kg/m3
same,viscosity,"298.15 K, x1 = 0.4259",0.3911 ± 0.0081 mPa·s
same,mass density,"298.15 K, x1 = 0.5266",823.98 ± 0.46 kg/m3
same,viscosity,"298.15 K, x1 = 0.5266",0.4095 ± 0.0082 mPa·s
same,mass density,"298.15 K, x1 = 0.6252",861.86 ± 0.4 kg/m3
same,viscosity,"298.15 K, x1 = 0.6252",0.4261 ± 0.0083 mPa·s
same,mass density,"298.15 K, x1 = 0.7218",904.23 ± 0.33 kg/m3
same,viscosity,"298.15 K, x1 = 0.7218",0.45 ± 0.0084 mPa·s
same,mass density,"298.15 K, x1 = 0.8165",951.63 ± 0.27 kg/m3
same,viscosity,"298.15 K, x1 = 0.8165",0.4779 ± 0.0086 mPa·s
same,mass density,"298.15 K, x1 = 0.9092",1005.04 ± 0.22 kg/m3
same,viscosity,"298.15 K, x1 = 0.9092",0.5169 ± 0.0089 mPa·s
same,mass density,"298.15 K, x1 = 1",1062.95 ± 0.23 kg/m3
same,viscosity,"298.15 K, x1 = 1",0.5734 ± 0.0093 mPa·s
same,mass density,"303.15 K, x1 = 0.1099",700.93 ± 0.67 kg/m3
same,viscosity,"303.15 K, x1 = 0.1099",0.3559 ± 0.0079 mPa·s
same,mass density,"303.15 K, x1 = 0.2176",725.89 ± 0.63 kg/m3
same,viscosity,"303.15 K, x1 = 0.2176",0.353 ± 0.0079 mPa·s
same,mass density,"303.15 K, x1 = 0.3229",753.73 ± 0.58 kg/m3
same,viscosity,"303.15 K, x1 = 0.3229",0.3585 ± 0.0079 mPa·s
same,mass density,"303.15 K, x1 = 0.4259",784.46 ± 0.53 kg/m3
same,viscosity,"303.15 K, x1 = 0.4259",0.3719 ± 0.008 mPa·s
same,mass density,"303.15 K, x1 = 0.5266",818.56 ± 0.47 kg/m3
same,viscosity,"303.15 K, x1 = 0.5266",0.3855 ± 0.008 mPa·s
same,mass density,"303.15 K, x1 = 0.6252",856.24 ± 0.41 kg/m3
same,viscosity,"303.15 K, x1 = 0.6252",0.4015 ± 0.0081 mPa·s
same,mass density,"303.15 K, x1 = 0.7218",898.37 ± 0.34 kg/m3
same,viscosity,"303.15 K, x1 = 0.7218",0.423 ± 0.0082 mPa·s
same,mass density,"303.15 K, x1 = 0.8165",945.53 ± 0.27 kg/m3
same,viscosity,"303.15 K, x1 = 0.8165",0.4491 ± 0.0084 mPa·s
same,mass density,"303.15 K, x1 = 0.9092",998.7 ± 0.22 kg/m3
same,viscosity,"303.15 K, x1 = 0.9092",0.4793 ± 0.0086 mPa·s
same,mass density,"303.15 K, x1 = 1",1056.35 ± 0.23 kg/m3
same,viscosity,"303.15 K, x1 = 1",0.5403 ± 0.009 mPa·s
same,mass density,"313.15 K, x1 = 0.1099",691.78 ± 0.68 kg/m3
same,viscosity,"313.15 K, x1 = 0.1099",0.32 ± 0.0077 mPa·s
same,mass density,"313.15 K, x1 = 0.2176",716.32 ± 0.64 kg/m3
same,viscosity,"313.15 K, x1 = 0.2176",0.3195 ± 0.0077 mPa·s
same,mass density,"313.15 K, x1 = 0.3229",743.68 ± 0.59 kg/m3
same,viscosity,"313.15 K, x1 = 0.3229",0.3248 ± 0.0077 mPa·s
same,mass density,"313.15 K, x1 = 0.4259",773.95 ± 0.54 kg/m3
same,viscosity,"313.15 K, x1 = 0.4259",0.3316 ± 0.0077 mPa·s
same,mass density,"313.15 K, x1 = 0.5266",807.58 ± 0.48 kg/m3
same,viscosity,"313.15 K, x1 = 0.5266",0.3435 ± 0.0077 mPa·s
same,mass density,"313.15 K, x1 = 0.6252",844.82 ± 0.42 kg/m3
same,viscosity,"313.15 K, x1 = 0.6252",0.3588 ± 0.0078 mPa·s
same,mass density,"313.15 K, x1 = 0.7218",886.49 ± 0.35 kg/m3
same,viscosity,"313.15 K, x1 = 0.7218",0.3777 ± 0.0079 mPa·s
same,mass density,"313.15 K, x1 = 0.8165",933.18 ± 0.28 kg/m3
same,viscosity,"313.15 K, x1 = 0.8165",0.402 ± 0.0081 mPa·s
same,mass density,"313.15 K, x1 = 0.9092",985.81 ± 0.23 kg/m3
same,viscosity,"313.15 K, x1 = 0.9092",0.4335 ± 0.0083 mPa·s
same,mass density,"313.15 K, x1 = 1",1043.01 ± 0.21 kg/m3
same,viscosity,"313.15 K, x1 = 1",0.4807 ± 0.0086 mPa·s
same,mass density,"323.15 K, x1 = 0.1099",682.57 ± 0.7 kg/m3
same,viscosity,"323.15 K, x1 = 0.1099",0.2905 ± 0.0075 mPa·s
same,mass density,"323.15 K, x1 = 0.2176",706.62 ± 0.65 kg/m3
same,viscosity,"323.15 K, x1 = 0.2176",0.292 ± 0.0075 mPa·s
same,mass density,"323.15 K, x1 = 0.3229",733.52 ± 0.6 kg/m3
same,viscosity,"323.15 K, x1 = 0.3229",0.2932 ± 0.0075 mPa·s
same,mass density,"323.15 K, x1 = 0.4259",763.34 ± 0.55 kg/m3
same,viscosity,"323.15 K, x1 = 0.4259",0.2997 ± 0.0075 mPa·s
same,mass density,"323.15 K, x1 = 0.5266",796.47 ± 0.5 kg/m3
same,viscosity,"323.15 K, x1 = 0.5266",0.3118 ± 0.0075 mPa·s
same,mass density,"323.15 K, x1 = 0.6252",833.28 ± 0.43 kg/m3
same,viscosity,"323.15 K, x1 = 0.6252",0.3251 ± 0.0076 mPa·s
same,mass density,"323.15 K, x1 = 0.7218",874.5 ± 0.37 kg/m3
same,viscosity,"323.15 K, x1 = 0.7218",0.3403 ± 0.0077 mPa·s
same,mass density,"323.15 K, x1 = 0.8165",920.24 ± 0.3 kg/m3
same,viscosity,"323.15 K, x1 = 0.8165",0.3615 ± 0.0078 mPa·s
same,mass density,"323.15 K, x1 = 0.9092",972.84 ± 0.24 kg/m3
same,viscosity,"323.15 K, x1 = 0.9092",0.3906 ± 0.008 mPa·s
same,mass density,"323.15 K, x1 = 1",1029.59 ± 0.19 kg/m3
same,viscosity,"323.15 K, x1 = 1",0.427 ± 0.0082 mPa·s
same,mass density,"333.15 K, x1 = 0.1099",673.2 ± 0.71 kg/m3
same,viscosity,"333.15 K, x1 = 0.1099",0.2666 ± 0.0073 mPa·s
same,mass density,"333.15 K, x1 = 0.2176",696.76 ± 0.66 kg/m3
same,viscosity,"333.15 K, x1 = 0.2176",0.2648 ± 0.0073 mPa·s
same,mass density,"333.15 K, x1 = 0.3229",723.19 ± 0.62 kg/m3
same,viscosity,"333.15 K, x1 = 0.3229",0.267 ± 0.0073 mPa·s
same,mass density,"333.15 K, x1 = 0.4259",752.53 ± 0.57 kg/m3
same,viscosity,"333.15 K, x1 = 0.4259",0.273 ± 0.0073 mPa·s
same,mass density,"333.15 K, x1 = 0.5266",785.19 ± 0.51 kg/m3
same,viscosity,"333.15 K, x1 = 0.5266",0.2828 ± 0.0074 mPa·s
same,mass density,"333.15 K, x1 = 0.6252",821.51 ± 0.45 kg/m3
same,viscosity,"333.15 K, x1 = 0.6252",0.2946 ± 0.0074 mPa·s
same,mass density,"333.15 K, x1 = 0.7218",862.31 ± 0.38 kg/m3
same,viscosity,"333.15 K, x1 = 0.7218",0.3099 ± 0.0075 mPa·s
same,mass density,"333.15 K, x1 = 0.8165",908.07 ± 0.31 kg/m3
same,viscosity,"333.15 K, x1 = 0.8165",0.3291 ± 0.0076 mPa·s
same,mass density,"333.15 K, x1 = 0.9092",959.74 ± 0.25 kg/m3
same,viscosity,"333.15 K, x1 = 0.9092",0.3543 ± 0.0078 mPa·s
same,mass density,"333.15 K, x1 = 1",1016 ± 0.18 kg/m3
same,viscosity,"333.15 K, x1 = 1",0.3893 ± 0.008 mPa·s
same,mass density,"343.15 K, x1 = 0.1099",663.69 ± 0.72 kg/m3
same,viscosity,"343.15 K, x1 = 0.1099",0.2437 ± 0.0072 mPa·s
same,mass density,"343.15 K, x1 = 0.2176",686.83 ± 0.68 kg/m3
same,viscosity,"343.15 K, x1 = 0.2176",0.2429 ± 0.0072 mPa·s
same,mass density,"343.15 K, x1 = 0.3229",712.79 ± 0.63 kg/m3
same,viscosity,"343.15 K, x1 = 0.3229",0.2462 ± 0.0072 mPa·s
same,mass density,"343.15 K, x1 = 0.4259",741.63 ± 0.58 kg/m3
same,viscosity,"343.15 K, x1 = 0.4259",0.2512 ± 0.0072 mPa·s
same,mass density,"343.15 K, x1 = 0.5266",773.79 ± 0.53 kg/m3
same,viscosity,"343.15 K, x1 = 0.5266",0.2603 ± 0.0072 mPa·s
same,mass density,"343.15 K, x1 = 0.6252",809.67 ± 0.47 kg/m3
same,viscosity,"343.15 K, x1 = 0.6252",0.2725 ± 0.0073 mPa·s
same,mass density,"343.15 K, x1 = 0.7218",850.05 ± 0.4 kg/m3
same,viscosity,"343.15 K, x1 = 0.7218",0.2851 ± 0.0074 mPa·s
same,mass density,"343.15 K, x1 = 0.8165",894.95 ± 0.33 kg/m3
same,viscosity,"343.15 K, x1 = 0.8165",0.3015 ± 0.0074 mPa·s
same,mass density,"343.15 K, x1 = 0.9092",946.54 ± 0.26 kg/m3
same,viscosity,"343.15 K, x1 = 0.9092",0.3252 ± 0.0076 mPa·s
same,mass density,"343.15 K, x1 = 1",1002.32 ± 0.16 kg/m3
same,viscosity,"343.15 K, x1 = 1",0.3527 ± 0.0077 mPa·s
